# Results from the supplement of paper PMC10307832.
# Experiments:
# Test in all cases: relative viability (nuclei count vs DMSO), 5 days (fraction); higher = more cells survive
# Omipalisib + Dasatinib = compound: COc1ncc(-c2ccc3nccc(-c4ccnnc4)c3c2)cc1NS(=O)(=O)c1ccc(F)cc1F [Omipalisib] + Cc1nc(Nc2ncc(C(=O)Nc3c(C)cccc3Cl)s2)cc(N2CCN(CCO)CC2)n1 [Dasatinib] (partner 0.075 µM)
# Summary of the method: (§1)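 Medians of duplicate plates are given as relative viability. That measure is the nuclei count in treated wells divided by the count in vehicle wells. Counts were taken on 4× images of lung cancer cell lines in 1536-well plates, 5 days after pin-tool dosing the day after seeding with one drug alone or a fixed anchor-drug dose plus five library-drug doses (not always all listed) in √10 steps.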
# Omipalisib + Palbociclib = compound: COc1ncc(-c2ccc3nccc(-c4ccnnc4)c3c2)cc1NS(=O)(=O)c1ccc(F)cc1F [Omipalisib] + CC(=O)c1c(C)c2cnc(Nc3ccc(N4CCNCC4)cn3)nc2n(C2CCCC2)c1=O [Palbociclib] (partner 0.5 µM)
# Summary of the method: as §1
# Omipalisib + Lapatinib = compound: COc1ncc(-c2ccc3nccc(-c4ccnnc4)c3c2)cc1NS(=O)(=O)c1ccc(F)cc1F [Omipalisib] + CS(=O)(=O)CCNCc1ccc(-c2ccc3ncnc(Nc4ccc(OCc5cccc(F)c5)c(Cl)c4)c3c2)o1 [Lapatinib] (partner 2 µM)
# Summary of the method: as §1
# Omipalisib + Alpelisib = compound: COc1ncc(-c2ccc3nccc(-c4ccnnc4)c3c2)cc1NS(=O)(=O)c1ccc(F)cc1F [Omipalisib] + Cc1nc(NC(=O)N2CCC[C@H]2C(N)=O)sc1-c1ccnc(C(C)(C)C(F)(F)F)c1 [Alpelisib] (partner 2 µM)
# Summary of the method: as §1
# Omipalisib + Pictilisib = compound: COc1ncc(-c2ccc3nccc(-c4ccnnc4)c3c2)cc1NS(=O)(=O)c1ccc(F)cc1F [Omipalisib] + CS(=O)(=O)N1CCN(Cc2cc3nc(-c4cccc5[nH]ncc45)nc(N4CCOCC4)c3s2)CC1 [Pictilisib] (partner 1 µM)
# Summary of the method: as §1
# Omipalisib + Trametinib = compound: COc1ncc(-c2ccc3nccc(-c4ccnnc4)c3c2)cc1NS(=O)(=O)c1ccc(F)cc1F [Omipalisib] + CC(=O)Nc1cccc(-n2c(=O)n(C3CC3)c(=O)c3c(Nc4ccc(I)cc4F)n(C)c(=O)c(C)c32)c1 [Trametinib] (partner 0.02 µM)
# Summary of the method: as §1
Cell Line,relative viability (Omipalisib + Dasatinib; first compound 0.0003 µM),relative viability (Omipalisib + Dasatinib; first compound 0.003 µM),relative viability (Omipalisib + Dasatinib; first compound 0.03 µM),relative viability (Omipalisib + Palbociclib; first compound 0.0003 µM),relative viability (Omipalisib + Palbociclib; first compound 0.003 µM),relative viability (Omipalisib + Palbociclib; first compound 0.03 µM),relative viability (Omipalisib + Lapatinib; first compound 0.0003 µM),relative viability (Omipalisib + Lapatinib; first compound 0.003 µM),relative viability (Omipalisib + Lapatinib; first compound 0.03 µM),relative viability (Omipalisib + Alpelisib; first compound 0.0003 µM),relative viability (Omipalisib + Alpelisib; first compound 0.003 µM),relative viability (Omipalisib + Alpelisib; first compound 0.03 µM),relative viability (Omipalisib + Pictilisib; first compound 0.0003 µM),relative viability (Omipalisib + Pictilisib; first compound 0.003 µM),relative viability (Omipalisib + Pictilisib; first compound 0.03 µM),relative viability (Omipalisib + Trametinib; first compound 0.0003 µM),relative viability (Omipalisib + Trametinib; first compound 0.003 µM),relative viability (Omipalisib + Trametinib; first compound 0.03 µM)
NCI-H358,0.127,0.11,0.131,0.148,0.139,0.131,0.388,0.367,0.325,0.963,0.594,0.524,0.285,0.272,0.278,0.136,0.115,0.107
HARA,0.291,0.288,0.187,0.267,0.181,0.169,0.613,0.659,0.326,0.769,0.704,0.434,0.464,0.661,0.354,0.694,0.301,0.188
HOP-62,0.629,0.458,0.27,0.468,0.426,0.292,0.946,0.901,0.702,0.911,0.926,0.666,0.745,0.538,0.595,0.372,0.248,0.198
PC-3 [JPC-3],0.942,0.917,0.726,0.547,0.527,0.534,0.457,0.367,0.318,1,0.993,0.863,0.816,0.766,0.689,0.738,0.664,0.439
NCI-H460,0.385,0.288,0.0813,0.147,0.0934,0.0384,0.594,0.845,0.151,0.362,0.241,0.0908,0.419,0.254,0.316,0.0973,0.0781,0.0544
NCI-H23,0.826,0.468,0.332,0.391,0.239,0.211,0.911,0.862,0.501,0.596,0.444,0.381,0.45,0.373,0.401,0.353,0.244,0.152
201T,0.582,0.413,0.323,0.325,0.343,0.27,1.02,0.935,0.936,1.02,0.999,0.735,0.706,0.668,0.554,0.681,0.658,0.465
RERF-LC-KJ,0.757,0.509,0.407,1.04,0.846,0.555,0.773,0.572,0.632,0.865,0.583,0.627,0.488,0.463,0.397,0.769,0.635,0.413
